Data on 18 compounds can be found in patent publication US20240400572A1, “COMPOUNDS AND METHODS FOR TREATING CANCERS THAT ARE MGMT DEFICIENT REGARDLESS OF MMR STATUS” (Yale University, priority 2021, published 2024).

Test in all cases: Anticancer activity towards LN229 human brain glioblastoma cells (nuclei count after 120 hours)
What all share (type): cell-based
Settings in all cases: LN-229, LN229 quad cells, 200 μM to 0.1 uM

One assay relates to LN229 MGMT+ MMR+ cells. As for the experimental part:
(§1) Exemplary compounds were evaluated for activity against LN229 human brain glioblastoma cells. Experimental procedures and results are provided elsewhere herein.
(§2) LN229 quad cells were maintained in Dulbecco's Modified Eagle Medium (DMEM) supplemented with 10% fetal bovine serum. Cells were plated into sterile black with glass bottom 384-well plates (Cellvis) at a concentration of 1,000 cells/well (20 μL total volume) using a MultiDrop (Thermo Fisher). Then, assay plates were centrifuged at 300 rpm for 2 seconds and incubated overnight in a 37° C. 5% CO2 incubator. Compounds were prepared as 100 mM stocks in DMSO and stored protected from light at −20′C until use. Prior to compound addition, the stock solutions of compound were diluted two-fold serially in DMSO from 100 mM down to 0.05 mM in a 384-well Source plate. Vehicle control wells containing DMSO and positive control wells containing 10 mM bortezomib were also added to the Source plate. An aliquot in the amount of 40 nL of compound stock solution or DMSO vehicle was transferred from the source plate to the cell assay plate using an Echo Acoustic dispense (Beckman). Three replicate dilution curves of each compound were run on each assay plate. An aliquot in the amount of 120 nL of a 10 mM bortezomib solution was transferred to the positive control wells resulting in a final concentration of 60 μM. The final concentration of compounds ranged from 200 μM to 0.1 uM (12-point, 2-fold dilution dose response curve), and the final DMSO concentration was 0.2%.
(§3) Assay plates were centrifuged at 500 rpm for 2 seconds and incubated for 120 hours at 37° C. in a humidified 5% CO2 incubator. Following incubation, cells were fixed with 4% paraformaldehyde and stained with DAPI for nuclei visualization. The images were acquired on the InCell 2200 high content imager (GE, now […]), and quantified using InCell Analyzer image analysis software. Z prime factor, signal-to-background and coefficient of variation were calculated for each assays plate using mean and standard deviation values of the negative (vehicle) and positive (bortezomib) control wells to ensure assay robustness. Raw cell count data for test compounds was normalized to percent viability relative to the DMSO vehicle control. Data was plotted in GraphPad Prism using a variable slope 4-parameter fit.

In a further assay the test system is LN229 MGMT+ MMR− cells. On the procedure:
as §1, §2, §3

For the next assay, the system named is LN229 MGMT− MMR+ cells. On the procedure:
as §1, §2, §3

The subject of another assay is LN229 MGMT− MMR− cells. As for the experimental part:
as §1, §2, §3

Broadly, the pIC50 is the IC50 on a negative log10 scale, so that one unit is a factor of ten. Read a high pIC50 as a small IC50.

SMILES strings stand for the structures. pIC50: −log10 of the molar value. Where a name gives a salt, the structure may show the parent alone.

Take `O=C(NC1CCC1)c1ncn2c(=O)n(CCF)nnc12` [Compound I-5, N-cyclobutyl-3-(2-fluoroethyl)-4-oxo-3H,4H-imidazo[4,3-d][1,2,3,5]tetrazine-8-carboxamide]: the pIC50 in the assay on LN229 MGMT+ MMR+ cells was less than 4.10; in the assay with LN229 MGMT+ MMR− cells, less than 4.10; with LN229 MGMT− MMR+ cells, 4.70 to 5.00; in the assay on LN229 MGMT− MMR− cells, more than 5.00.

`O=C(c1ncn2c(=O)n(CCF)nnc12)N1CCCC1` [Compound I-10, 3-(2-fluoroethyl)-8-(pyrrolidine-1-carbonyl)-3H,4H-imidazo[4,3-d][1,2,3,5]tetrazin-4-one]: the pIC50 with LN229 MGMT+ MMR+ cells is less than 4.10; in the assay on LN229 MGMT+ MMR− cells, less than 4.10; in the assay with LN229 MGMT− MMR+ cells it was 4.30 to 4.70; in the assay with LN229 MGMT− MMR− cells, more than 5.00.

On to `O=C(c1ncn2c(=O)n(CCF)nnc12)N1CCC1` [Compound I-9, 8-(azetidine-1-carbonyl)-3-(2-fluoroethyl)-3H,4H-imidazo[4,3-d][1,2,3,5]tetrazin-4-one], for which the negative logarithm of the IC50 (pIC50) with LN229 MGMT+ MMR+ cells was less than 4.10; in the assay with LN229 MGMT+ MMR− cells, less than 4.10; in the assay on LN229 MGMT− MMR+ cells it was 4.70 to 5.00; with LN229 MGMT− MMR− cells it was more than 5.00.

As to `CCCN(C)C(=O)c1ncn2c(=O)n(CCF)nnc12` [Compound I-17, 3-(2-fluoroethyl)-N-methyl-4-oxo-N-propyl-3H,4H-imidazo[4,3-d][1,2,3,5]tetrazine-8-carboxamide], the pIC50 is less than 4.10 with LN229 MGMT+ MMR+ cells, less than 4.10 with LN229 MGMT+ MMR− cells, less than 4.10 with LN229 MGMT− MMR+ cells and 4.30 to 4.70 in the assay on LN229 MGMT− MMR− cells.

For `[2H]C([2H])([2H])NC(=O)c1ncn2c(=O)n(CCF)nnc12` [Compound I-19, 3-(2-fluoroethyl)-N-(D3)methyl-4-oxo-3H,4H-imidazo[4,3-d][1,2,3,5]tetrazine-8-carboxamide], the pIC50 in the assay on LN229 MGMT+ MMR+ cells was less than 4.10; in the assay on LN229 MGMT+ MMR− cells, less than 4.10; in the assay on LN229 MGMT− MMR+ cells, 4.10 to 4.30; in the assay with LN229 MGMT− MMR− cells, more than 5.00.

For `CN(C)CCNC(=O)c1ncn2c(=O)n(CCF)nnc12` [Compound I-12, N-[2-(dimethylamino)ethyl]-3-(2-fluoroethyl)-4-oxo-3H,4H-imidazo[4,3-d][1,2,3,5]tetrazine-8-carboxamide hydrochloride], the pIC50 is less than 4.10 in the assay with LN229 MGMT+ MMR+ cells, less than 4.10 in the assay on LN229 MGMT+ MMR− cells, more than 5.00 in the assay with LN229 MGMT− MMR+ cells and more than 5.00 in the assay with LN229 MGMT− MMR− cells.

With `[2H]C([2H])([2H])N(Cc1ccccc1)C(=O)c1ncn2c(=O)n(CCF)nnc12` [Compound I-20, N-benzyl-3-(2-fluoroethyl)-N-(2H3)methyl-4-oxo-3H,4H-imidazo[4,3-][1,2,3,5]tetrazine-8-carboxamide], the pIC50 in the assay with LN229 MGMT+ MMR+ cells is less than 4.10; in the assay on LN229 MGMT+ MMR− cells, less than 4.10; in the assay on LN229 MGMT− MMR+ cells, 4.10 to 4.30; in the assay on LN229 MGMT− MMR− cells, more than 5.00.

With `CCNC(=O)c1ncn2c(=O)n(CCF)nnc12` [Compound I-2, N-ethyl-3-(2-fluoroethyl)-4-oxo-3H,4H-imidazo[4,3-d][1,2,3,5]tetrazine-8-carboxamide], the pIC50 in the assay with LN229 MGMT+ MMR+ cells was less than 4.10; in the assay with LN229 MGMT+ MMR− cells, less than 4.10; in the assay with LN229 MGMT− MMR+ cells, 4.70 to 5.00; in the assay on LN229 MGMT− MMR− cells, more than 5.00.

For `CCCN(CCC)C(=O)c1ncn2c(=O)n(CCF)nnc12` [Compound I-13, 3-(2-fluoroethyl)-4-oxo-N,N-dipropyl-3H,4H-imidazo[4,3-d][1,2,3,5]tetrazine-8-carboxamide], the pIC50 was 4.30 to 4.70 in the assay with LN229 MGMT+ MMR+ cells, 4.30 to 4.70 with LN229 MGMT+ MMR− cells, 4.30 to 4.70 in the assay on LN229 MGMT− MMR+ cells and 4.70 to 5.00 in the assay on LN229 MGMT− MMR− cells.

Take `CCN(C)C(=O)c1ncn2c(=O)n(CCF)nnc12` [Compound I-14, N-ethyl-3-(2-fluoroethyl)-N-methyl-4-oxo-3H,4H-imidazo[4,3-d][1,2,3,5]tetrazine-8-carboxamide]: the pIC50 with LN229 MGMT+ MMR+ cells was less than 4.10; in the assay with LN229 MGMT+ MMR− cells, less than 4.10; in the assay on LN229 MGMT− MMR+ cells, 4.30 to 4.70; in the assay with LN229 MGMT− MMR− cells, 4.70 to 5.00.

For the compound `CN(C)C(=O)c1ncn2c(=O)n(CCF)nnc12` [Compound I-6, 3-(2-fluoroethyl)-N,N-dimethyl-4-oxo-3H,4H-imidazo[4,3-d][1,2,3,5]tetrazine-8-carboxamide], the pIC50 in the assay with LN229 MGMT+ MMR+ cells is less than 4.10; in the assay with LN229 MGMT+ MMR− cells, less than 4.10; in the assay on LN229 MGMT− MMR+ cells, 4.30 to 4.70; in the assay on LN229 MGMT− MMR− cells it was 4.70 to 5.00.

As for `O=C(NC1CC1)c1ncn2c(=O)n(CCF)nnc12` [Compound I-4, N-cyclopropyl-3-(2-fluoroethyl)-4-oxo-3H,4H-imidazo[4,3-d][1,2,3,5]tetrazine-8-carboxamide], the pIC50 in the assay with LN229 MGMT+ MMR+ cells was less than 4.10; with LN229 MGMT+ MMR− cells, less than 4.10; in the assay on LN229 MGMT− MMR+ cells, 4.70 to 5.00; with LN229 MGMT− MMR− cells, more than 5.00.

Regarding `O=C(Nc1ccccn1)c1ncn2c(=O)n(CCF)nnc12` [Compound I-8, 3-(2-fluoroethyl)-4-oxo-N-(pyridin-2-yl)-3H,4H-imidazo[4,3-d][1,2,3,5]tetrazine-8-carboxamide], the pIC50 in the assay with LN229 MGMT+ MMR+ cells was less than 4.10; in the assay on LN229 MGMT+ MMR− cells, less than 4.10; with LN229 MGMT− MMR+ cells, 4.70 to 5.00; in the assay with LN229 MGMT− MMR− cells, more than 5.00.

`CCN(CC)C(=O)c1ncn2c(=O)n(CCF)nnc12` [Compound I-15, N,N-diethyl-3-(2-fluoroethyl)-4-oxo-3H,4H-imidazo[4,3-d][1,2,3,5]tetrazine-8-carboxamide]: the pIC50 was less than 4.10 in the assay on LN229 MGMT+ MMR+ cells, less than 4.10 in the assay on LN229 MGMT+ MMR− cells, 4.10 to 4.30 in the assay with LN229 MGMT− MMR+ cells and 4.70 to 5.00 in the assay on LN229 MGMT− MMR− cells.

Turning to `CCCNC(=O)c1ncn2c(=O)n(CCF)nnc12` [Compound I-16, 3-(2-fluoroethyl)-4-oxo-N-propyl-3H,4H-imidazo[4,3-d][1,2,3,5]tetrazine-8-carboxamide], the negative-log IC50 (pIC50) in the assay with LN229 MGMT+ MMR+ cells was less than 4.10; with LN229 MGMT+ MMR− cells, less than 4.10; with LN229 MGMT− MMR+ cells, 4.70 to 5.00; in the assay on LN229 MGMT− MMR− cells it was more than 5.00.

For `CCCN(CC)C(=O)c1ncn2c(=O)n(CCF)nnc12` [Compound I-18, N-ethyl-3-(2-fluoroethyl)-4-oxo-N-propyl-3H,4H-imidazo[4,3-d][1,2,3,5]tetrazine-8-carboxamide], the pIC50 in the assay on LN229 MGMT+ MMR+ cells was less than 4.10; with LN229 MGMT+ MMR− cells, less than 4.10; with LN229 MGMT− MMR+ cells it was less than 4.10; in the assay with LN229 MGMT− MMR− cells it was 4.30 to 4.70.

As for `O=C(Nc1nccs1)c1ncn2c(=O)n(CCF)nnc12` [Compound I-7, 3-(2-fluoroethyl)-4-oxo-N-(1,3-thiazol-2-yl)-3H,4H-imidazo[4,3-d][1,2,3,5]tetrazine-8-carboxamide], the pIC50 in the assay on LN229 MGMT+ MMR+ cells, in the assay with LN229 MGMT+ MMR− cells, with LN229 MGMT− MMR+ cells and in the assay with LN229 MGMT− MMR− cells was more than 5.00 each time.

With `O=C(NCC(F)(F)F)c1ncn2c(=O)n(CCF)nnc12` [Compound I-3, 3-(2-fluoroethyl)-4-oxo-N-(2,2,2-trifluoroethyl)-3H,4H-imidazo[4,3-d][1,2,3,5]tetrazine-carboxamide], the pIC50 was less than 4.10 in the assay on LN229 MGMT+ MMR+ cells, less than 4.10 in the assay with LN229 MGMT+ MMR− cells, more than 5.00 in the assay on LN229 MGMT− MMR+ cells and more than 5.00 in the assay with LN229 MGMT− MMR− cells.
